Reference: publication PMC7539012, “Hyperphosphorylated tau aggregation and cytotoxicity modulators screen identified prescription drugs linked to Alzheimer's disease and cognitive functions” (Scientific Reports, 2020)
Where a name gives a salt, the structure may show the parent alone. Where a SMILES comes first, the peptide text is derived from it. [ ]: non-standard residue; d: D form. pGlu = O=C1CC[C@@H](C(=O)O)N1; Thz = O=C(O)[C@@H]1CSCN1

What follows are compounds tested on T1, 1N4R p-tau (assay: p-tau aggregation modulator screen of 1280-compound library (ThS fluorescence net change over 16 h)). Details: not given.
T1 construct: made in house; host or cells: E. coli (PIMAX system)
Format: biochemical

Row | Structure (SMILES) | ThS net change
1 | CC(N)C(O)c1ccccc1 (stereo not shown) [Phenylpropanolamine hydrochloride] | 395
2 | CC[N+]1(C)CCCC(OC(=O)C(O)(c2ccccc2)c2ccccc2)C1 (stereo not shown) [Pipenzolate bromide] | 395
3 | COc1cc(NC(C)CCCN)c2ncccc2c1 (stereo not shown) [Primaquine diphosphate] | 250
4 | CNNCc1ccc(C(=O)NC(C)C)cc1 [Procarbazine hydrochloride] | 457
5 | CC[N+](C)(CC)CCC[n+]1c(-c2ccccc2)c2cc(N)ccc2c2ccc(N)cc21.[I-].[I-] [Propidium iodide] | 269
6 | CC(C)c1cccc(C(C)C)c1O [Propofol] | 400
7 | C[C@@H]1O[C@@H](O[C@@H]2C=C3CC[C@@H]4[C@H](CC[C@]5(C)[C@@H](c6ccc(=O)oc6)CC[C@]45O)[C@@]3(C)CC2)[C@H](O)[C@H](O)[C@H]1O [Proscillaridin A] | 498

Same assay, conditions: 1280-compound library screen; ThS fluorescence net change over 16 h

Row | Structure (SMILES) | ThS net change
8 | CC(N/C(=N\C#N)Nc1ccncc1)C(C)(C)C (stereo not shown) [Pinacidil] | 391
9 | CCc1ccc(CCOc2ccc(CC3SC(=O)NC3=O)cc2)nc1 (stereo not shown) [Pioglitazone] | 410
10 | CCN1CCCC(OC(=O)C(c2ccccc2)c2ccccc2)C1 (stereo not shown) [Piperidolate hydrochloride] | 406
11 | NC(=O)CN1CCCC1=O [Piracetam] | 406
12 | Cc1nc2ccccn2c(=O)c1CCN1CCC(C(=O)c2ccc(F)cc2)CC1 [Pirenperone] | 388
13 | Cl.c1cnc(N2CCN(Cc3ccc4c(c3)OCO4)CC2)nc1 [Piribedil hydrochloride] | 392
14 | CCn1cc(C(=O)O)c(=O)c2cnc(N3CCCC3)nc21 [Piromidic acid] | 394
15 | CC(=O)Nc1ccc(OCC(O)CNC(C)C)cc1 (stereo not shown) [Practolol] | 383
16 | CCCN[C@H]1CCc2nc(N)sc2C1 [Pramipexole dihydrochloride] | 385
17 | CCCCOc1ccc(OCCCN2CCOCC2)cc1 [Pramoxine hydrochloride] | 381
18 | CCCNC(C)C(=O)Nc1ccccc1C (stereo not shown) [Prilocaine hydrochloride] | 378
19 | CCCC(C(=O)OCCN(CC)CC)(c1ccccc1)c1ccccc1 [Proadifen hydrochloride] | 390
20 | CCN(CC)CCNC(=O)c1ccc(N)cc1 [Procainamide hydrochloride] | 379
21 | [H]/N=C(\N/C(=N/[H])Nc1ccc(Cl)cc1)NC(C)C [Proguanil hydrochloride] | 389
22 | CC(C)NCC(O)c1ccc2ccccc2c1.Cl (stereo not shown) [Pronethalol hydrochloride] | 411
23 | CCCOc1ccc(C(=O)OCCN(CC)CC)cc1N [Proparacaine hydrochloride] | 392
24 | CCCOc1cc(N)ccc1C(=O)OCCN(CC)CC [Propoxycaine hydrochloride] | 403
25 | CCCc1cc(C(N)=S)ccn1 [Prothionamide] | 412
26 | CNCCCC1c2ccccc2C=Cc2ccccc21 [Protriptyline hydrochloride] | 412

Same assay, conditions: 1280-compound library screen; […]

Row | Structure (SMILES) | ThS net change
27 | CC(C)(N)Cc1ccccc1.Cl [Phentermine hydrochloride] | 408
28 | C=C(C)[C@@H]1[C@H]2OC(=O)[C@@H]1[C@]1(O)C[C@H]3O[C@]34C(=O)O[C@H]2[C@]14C [Picrotoxinin] | 390
29 | CC[C@@H]1C(=O)OC[C@@H]1Cc1cncn1C [Pilocarpine nitrate] | 378
30 | COc1cc([C@@H]2c3cc4c(cc3[C@H](O)[C@H]3COC(=O)[C@H]23)OCO4)cc(OC)c1OC [Podophyllotoxin] | 402
31 | C[n+]1ccccc1/C=N/O [Pralidoxime chloride] | 397
32 | CC(C)C[C@H](CN)CC(=O)O [Pregabalin] | 400
33 | CC(Cc1ccccc1)NCCC(c1ccccc1)c1ccccc1 (stereo not shown) [Prenylamine lactate] | 401
34 | CN(C)C(=O)Oc1ccc[n+](C)c1.[I-] [Pyridostigmine iodide] | 381

Same assay, conditions: library screen, ThS fluorescence net change over 16 h with p-tau

Row | Structure (SMILES) | ThS net change
35 | CN1CCC(=C2c3ccccc3Sc3ccccc32)CC1 [Pimethixene maleate] | 320
36 | O=c1[nH]c2ccccc2n1C1CCN(CCCC(c2ccc(F)cc2)c2ccc(F)cc2)CC1 [Pimozide] | 274
37 | CC(=O)c1ccc2c(c1)N(CCCN1CCC(CCO)CC1)c1ccccc1S2 [Piperacetazine] | 243
38 | CN1CCN(CC(=O)N2c3ccccc3C(=O)Nc3cccnc32)CC1 [Pirenzepine dihydrochloride] | 322
39 | O=C(Nc1cccc2c(=O)cc(-c3nnn[nH]3)oc12)c1ccc(OCCCCc2ccccc2)cc1 [Pranlukast] | 288
40 | CN(C)CCCN1c2ccccc2Sc2ccccc21 [Promazine hydrochloride] | 306
41 | CCCNCC(O)COc1ccccc1C(=O)CCc1ccccc1 (stereo not shown) [Propafenone hydrochloride] | 317
42 | CN1CCCN=C1/C=C/c1cccs1.O=C(O)C(O)C(O)C(=O)O [Pyrantel tartrate] | 312
43 | COc1ccc(CN(CCN(C)C)c2ccccn2)cc1 [Pyrilamine maleate] | 298

Same assay, conditions: p-tau aggregation modulator screen of 1280-compound library; ThS fluorescence net change

Row | Structure (SMILES) | ThS net change
44 | Cc1ccc(N(CC2=NCCN2)c2cccc(O)c2)cc1 [Phentolamine hydrochloride] | 334
45 | CC(C)NCC(O)COc1cccc2[nH]ccc12 (stereo not shown) [Pindolol] | 331
46 | CCn1cc(C(=O)O)c(=O)c2cnc(N3CCNCC3)nc21 [Pipemidic acid] | 377
47 | CCN1CCN(C(=O)N[C@@H](C(=O)N[C@@H]2C(=O)N3[C@@H]2SC(C)(C)[C@@H]3C(=O)O)c2ccccc2)C(=O)C1=O [Piperacillin sodium salt] | 354
48 | CN1C(C(=O)Nc2ccccn2)=C(O)c2ccccc2S1(=O)=O [Piroxicam] | 329
49 | CC(C(=O)O)c1ccc2c(c1)Cc1cccnc1O2 (stereo not shown) [Pranoprofen] | 345
50 | C[C@]12C=CC(=O)C=C1CC[C@@H]1[C@@H]2[C@@H](O)C[C@@]2(C)[C@H]1CC[C@]2(O)C(=O)CO [Prednisolone] | 351
51 | C[C@]12C=CC(=O)C=C1CC[C@@H]1[C@@H]2C(=O)C[C@@]2(C)[C@H]1CC[C@]2(O)C(=O)CO [Prednisone] | 366
52 | CS(=O)(=O)O.OC(CCN1CCCCC1)(c1ccccc1)c1ccccc1 [Pridinol methanesulfonate salt] | 350
53 | CCC1(c2ccccc2)C(=O)NCNC1=O [Primidone] | 346
54 | CCN(CC)CCOC(=O)c1ccc(N)cc1 [Procaine hydrochloride] | 362
55 | CN1CCN(CCCN2c3ccccc3Sc3ccc(Cl)cc32)CC1 [Prochlorperazine dimaleate] | 357
56 | OC(CCN1CCCC1)(c1ccccc1)C1CCCCC1 (stereo not shown) [Procyclidine hydrochloride] | 347
57 | CC(=O)[C@H]1CC[C@H]2[C@@H]3CCC4=CC(=O)CC[C@]4(C)[C@H]3CC[C@]12C [Progesterone] | 336
58 | CCCN(CCC)C(=O)C(CCC(=O)O)NC(=O)c1ccccc1 (stereo not shown) [Proglumide] | 331
59 | CC(CN1c2ccccc2Sc2ccccc21)N(C)C (stereo not shown) [Promethazine hydrochloride] | 330
60 | CC(C)[N+](C)(CCOC(=O)C1c2ccccc2Oc2ccccc21)C(C)C [Propantheline bromide] | 373
61 | NC(=O)c1cnccn1 [Pyrazinamide] | 370
62 | Cc1ncc(CO)c(CO)c1O [Pyridoxine hydrochloride] | 354

Same assay, conditions: p-tau aggregation modulator screen of 1280-compound library; […]

Row | Structure (SMILES) | ThS net change
63 | COc1ccc(C(=O)NCc2cccnc2)cc1C(=O)NCc1cccnc1.O [Picotamide monohydrate] | 355
64 | COc1cc2nc(N3CCN(C(=O)c4ccco4)CC3)nc(N)c2cc1OC [Prazosin hydrochloride] | 367

Same assay, conditions: p-tau aggregation modulator screen of the compound library, ThS fluorescence net change

Row | Structure (SMILES) | ThS net change
65 | CCCCC1C(=O)N(c2ccccc2)N(c2ccccc2)C1=O [Phenylbutazone] | 413
66 | O=C(O)c1ccccc1C(=O)Nc1ccc(S(=O)(=O)Nc2nccs2)cc1 [Phthalylsulfathiazole] | 425
67 | O=C1CC[C@@H](C(=O)N2CSC[C@H]2C(=O)O)N1 [Pidotimod] ([pGlu]-[Thz]-OH) | 441
68 | NS(=O)(=O)c1cc(C(=O)O)cc(N2CCCC2)c1Oc1ccccc1 [Piretanide] | 435
69 | CS(=O)(=O)O.Cc1ccc2c(c1)c1c3n2CCNC3CCC1 (stereo not shown) [Pirlindole mesylate] | 461
70 | CC(C)(C)C(=O)OCOC(=O)[C@@H]1N2C(=O)[C@@H](NC(=O)[C@H](N)c3ccccc3)[C@H]2SC1(C)C [Pivampicillin] | 481
71 | CC(C)(C)C(=O)OCOC(=O)[C@@H]1N2C(=O)[C@@H](/N=C/N3CCCCCC3)[C@H]2SC1(C)C [Pivmecillinam hydrochloride] | 423
72 | CN1CCC(=C2c3ccccc3CCc3sccc32)CC1.O=C(O)CC(O)C(=O)O [Pizotifen malate] | 437
73 | CC[C@H](C)C(=O)O[C@H]1C[C@H](O)C=C2C=C[C@H](C)[C@H](CC[C@@H](O)C[C@@H](O)CC(=O)O)[C@H]21 [Pravastatin] | 467
74 | O=C(C1CCCCC1)N1CC(=O)N2CCc3ccccc3C2C1 (stereo not shown) [Praziquantel] | 418
75 | CCOC(=O)O[C@]1(C(=O)COC(=O)CC)CC[C@H]2[C@@H]3CCC4=CC(=O)C=C[C@]4(C)[C@H]3[C@@H](O)C[C@@]21C [Prednicarbate, prednicarbate] | 910
76 | CC(=O)[C@H]1CC[C@H]2[C@@H]3CC=C4C[C@@H](O)CC[C@]4(C)[C@H]3CC[C@]12C [Pregnenolone] | 482
77 | CCCN(CCC)S(=O)(=O)c1ccc(C(=O)O)cc1 [Probenecid] | 416
78 | CC(C)(Sc1cc(C(C)(C)C)c(O)c(C(C)(C)C)c1)Sc1cc(C(C)(C)C)c(O)c(C(C)(C)C)c1 [Probucol] | 414
79 | CCCc1cc(=O)[nH]c(=S)[nH]1 [Propylthiouracil] | 422
